Patent publication US20070112068A1, “Nitrile compound and its use in pest control” (priority 2003, published 2007)

Experiments:
Assay type in all cases: in vivo
Blattella germanica [1] = assay: Experimental Example 18: smoking preparation in Peet-Grady chamber, Blattella germanica; conditions: smoking preparation (Formulation Example 16); 2 hours exposure, after 72 hours
Method: Plastic cups (diameter: 12.5 cm, height: 8 cm) containing 10 (5 males and 5 females) imagoes of Blattella germanica were placed at the two corners of a Peet-Grady chamber with 1.8 m (width)×1.8 m (depth)×1.8 m (height). A plastic container containing water was placed at the center of the bottom of the Peet-Grady chamber and a smoking preparation of the present compound (31) prepared according to Formulation Example 16 was placed in this plastic cup. After 2 hours, Blattella germanica was collected, transferred to a 200 mL plastic cup, and left together with feed and water at 25° C. After 72 hours, the number of surviving Blattella germanica was examined and the death rate of the pest was calculated.

Formica fusca japonica [2] = assay: Experimental Example 23: treated filter paper on cup lid, Formica fusca japonica; conditions: 0.1 ml of 5% (w/v) acetone solution on filter paper on lid; after 7 days
Method: A 5% (w/v) solution of the present compound (31) in acetone is prepared. 0.1 ml of the solution is added dropwise to a filter paper with 2 cm×2 cm and then air-dried. 10 imagoes of Formica fusca japonica are released in a plastic cup having a diameter of 12.5 cm and a height of 8 cm. After feed and water are placed therein, the cup is closed with a lid. The aforementioned pesticide-treated filter paper is attached to the inner surface of the lid. In addition, the inside wall of the cup is coated with talc for preventing the climbing of ants. This cup is kept at 25° C.

Blattella germanica [3] = assay: Experimental Example 14: topical application, Blattella germanica; conditions: 1 μl of 1% (w/v) acetone solution onto sternum of thorax of female imagoes; after 7 days
Method: 1% (w/v) solutions of the present compounds (4), (20), (22), (23), (24), (29), (30), (31), (35), (36), (37), (38), (46), (53), (54), (56), (57), (59), (61), (66), (67), (68), (69), (70), (71), (79), (81), (83), (84), (89), and (90) in acetone were prepared. Onto the sternum of the thorax of female imagoes of Blattella germanica, 1 μl of the acetone solution was added dropwise. The imagoes were transferred to a plastic cup having a diameter of about 9 cm and a height of about 4.5 cm and left together with feed and water at 25° C. After 7 days, the number of surviving Blattella germanica was examined and the death rate of the pest was calculated. 10 imagoes of Blattella germanica were put in a cup and three replicate experiments were performed.

Blattella germanica [4] = assay: Experimental Example 21: poison bait, Blattella germanica; conditions: poison bait: 3 ml of 0.5% by weight acetone solution per 3 g animal feed; 1 g bait; after 7 days
Method: 3 ml of a 0.5% by weight solution of the present compound (31) in acetone is added dropwise to 3 g of animal powdery feed, mixed thoroughly, and then air-dried to obtain a poison bait. 1 g of this poison bait is placed on an aluminum dish and the dish is placed in a plastic cup (860 mL) containing 20 imagoes (10 males and 10 females) of Blattella germanica. The pest is given water and kept at 25° C. After 7 days, the number of surviving Blattella germanica is examined and the activity of the poison bait is obtained.

Formica fusca japonica [5] = assay: Experimental Example 19: direct oil spray in CSMA chamber, Formica fusca japonica; conditions: 0.4 ml of 0.0625% (w/v) oil sprayed directly; after 72 hours
Method: 18.8 mg of the present compound (31) was dissolved in 30 mL of a mixed solvent of 90 parts by weight of Isopar M (isoparaffin, the registered trade name of Exxon Chemical) and 10 parts by weight of dichloromethane to prepare a 0.0625% (w/v) oil. A plastic cup (200 mL) containing 10 imagoes of Formica fusca japonica was placed on the bottom of a CSMA chamber (width: 46 cm, depth: 46 cm, height: 70 cm). 0.4 ml of the oil was directly sprayed on the test Formica fusca japonica from the upper side of the CSMA chamber. After 10 seconds from spraying, the container containing Formica fusca japonica was removed. Formica fusca japonica was transferred to another plastic container (200 mL) and left together with feed and water at 25° C. After 72 hours from pesticide treatment, Formica fusca japonica was observed and the death rate of the pest was calculated.

Blattella germanica [6] = assay: Experimental Example 15: treated filter paper in paper box, Blattella germanica; conditions: 0.1 ml of 2.5% (w/v) acetone solution on filter paper in paper box; after 7 days
Method: 2.5% (w/v) solutions of the present compounds (23), (24) and (31) in acetone were prepared. 0.1 ml of the solution was added dropwise onto a filter paper with 2 cm×2 cm and then air-dried. This filter paper was attached to the center of the inside bottom of a paper box having 10 cm (width)×2 cm (height)×7 cm (depth) with a two-sided tape. One hole of 5 mm in width and 2 cm in height was made through one side of this box. This box was placed in a plastic vat with 25 cm×20 cm×8 cm in height and therein 10 females and 10 males of Blattella germanica were released. The inside wall of the plastic vat used in this experiment was coated with talc for preventing the escape of cockroaches. The plastic vat contained feed and water and left at 25° C. After 7 days, Blattella germanica was observed and the death rate of the pest was calculated. This experiment was repeated two times.

Formica fusca japonica [7] = assay: Experimental Example 20: poison bait, Formica fusca japonica; conditions: poison bait: 1 ml of 0.1% by weight acetone solution per 1 g unrefined sugar; 0.5 g bait; after 48 hours
Method: 1 ml of a 0.1% by weight solution of the present compound (31) in acetone was added dropwise to 1 g of a commercially available powdery unrefined sugar, mixed thoroughly and then air-dried to obtain a poison bait. A cotton ball impregnated with water and 0.5 g of the poison bait on an aluminum dish were placed in a plastic cup (860 mL) containing 10 imagoes of Formica fusca japonica. After 48 hours, the number of surviving Formica fusca japonica was examined and the death rate of the pest was calculated.

Musca domestica = assay: Experimental Example 11: treated filter paper in Peet-Grady chamber, Musca domestica; conditions: 5 ml of 1% (w/v) acetone solution on filter paper; 1.8 m Peet-Grady chamber; 1 hour exposure, 24 hours later
Method: A 1% (w/v) solution of the present compound (31) in acetone was prepared. Onto a filter paper with 10 cm×25 cm, 5 ml of the solution was added dropwise uniformly and then air-dried. This filter paper was suspended from the center of the ceiling center of a Peet-Grady chamber with 1.8 m (width)×1.8 m (depth)×1.8 m (height) and therein about 50 imagoes of Musca domestica were released. After 1 hour, all test pests were collected, put into a plastic cup together with absorbent cotton impregnated with 5% sugar water, and then left at 25° C. After 24 hours, the number of surviving Musca domestica was examined and the death rate was calculated.

## N#CC(C#N)(CCC(F)(F)F)CC(F)(F)C(F)(F)C(F)(F)C(F)F [(31)]
Blattella germanica [1]
  death rate of the pest: 100%
Formica fusca japonica [2]
  pesticidal effect: pesticidal effect on Formica fusca japonica is confirmed
Blattella germanica [3]
  death rate of the pest: 100%
Blattella germanica [4]
  activity of the poison bait: sufficient pesticidal effect
Formica fusca japonica [5]
  death rate of the pest: 100%
Blattella germanica [6]
  death rate of the pest: 100%
Formica fusca japonica [7]
  death rate of Formica fusca japonica: 100%
Musca domestica
  death rate of the pest: 92%
